Calls of active or inactive are those of the source. How the calls were made is not given here.
System: rodent lifetime carcinogenesis bioassay, tumor incidence TD50
Assay: chronic cancer bioassays in animals – CPDB, compiled studies (AID 1745844)

For `O=[N+]([O-])c1ccc(Cl)c([N+](=O)[O-])c1`, the TD50 (mouse, strain CD-1 HaM/ICR, females, in feed, site: any site (literature study), lesion: several types, types named in the paper, dosed 77 weeks, study length 94 weeks) was 124 mg/kg/day (inactive), the TD50 (mouse, strain CD-1 HaM/ICR, females, in feed, site: liver, lesion: several types, types named in the paper, dosed 77 weeks, study length 94 weeks) was 1520 mg/kg/day (inactive) and the TD50 (mouse, strain CD-1 HaM/ICR, females, in feed, site: lung, lesion: several types, types named in the paper, dosed 77 weeks, study length 94 weeks) was 150 mg/kg/day (inactive). The TD50 (mouse, strain CD-1 HaM/ICR, males, in feed, site: any site (literature study), lesion: several types, types named in the paper, dosed 77 weeks, study length 94 weeks) was 255 mg/kg/day (inactive), the TD50 (mouse, strain CD-1 HaM/ICR, males, in feed, site: liver, lesion: several types, types named in the paper, dosed 77 weeks, study length 94 weeks) was 365 mg/kg/day (inactive) and the TD50 (mouse, strain CD-1 HaM/ICR, males, in feed, site: lung, lesion: several types, types named in the paper, dosed 77 weeks, study length 94 weeks) was 541 mg/kg/day (inactive). For the same compound, the TD50 (rat, strain Charles River CD (Sprague-Dawley), males, in feed, site: any site (literature study), lesion: several types, types named in the paper, dosed 77 weeks, study length 103 weeks) was 12.3 mg/kg/day (inactive) and the carcinogen call (rat, strain Charles River CD (Sprague-Dawley), males, in feed, site: liver, lesion: several types, types named in the paper, dosed 77 weeks, study length 103 weeks) was “negative (inactive)”.
`CNC(=O)c1c(N(C)N=O)ncn1C` showed a TD50 (rat, strain BD IX, both sexes, in drinking water, site: nasal cavity, olfactory epithelium, lesion: neuroepithelioma, dosed 73 weeks, study length 79 weeks) of 1.03 mg/kg/day, a TD50 (rat, strain BD IX, both sexes, in drinking water, site: nasal cavity, lesion: several types, types named in the paper, dosed 73 weeks, study length 79 weeks) of 1 mg/kg/day and a TD50 (rat, strain BD IX, both sexes, in drinking water, site: nasal cavity, lesion: squamous-cell carcinoma, dosed 73 weeks, study length 79 weeks) of 5.56 mg/kg/day.
For `CCNc1nc(Cl)nc(NC(C)(C)C#N)n1`, the TD50 (rat, strain Charles River CD (Sprague-Dawley), females, in feed, site: liver, lesion: hepatocellular adenoma, dosed 105 weeks, study length 105 weeks) was 280 mg/kg/day, the TD50 (rat, strain Charles River CD (Sprague-Dawley), females, in feed, site: mammary gland, lesion: adenocarcinoma, dosed 105 weeks, study length 105 weeks) was 6.65 mg/kg/day and the TD50 (rat, strain Charles River CD (Sprague-Dawley), females, in feed, site: mammary gland, lesion: benign tumor, dosed 52 weeks, study length 52 weeks) was 8.77 mg/kg/day. The TD50 (rat, strain Charles River CD (Sprague-Dawley), females, in feed, site: mammary gland, lesion: carcinosarcoma, dosed 105 weeks, study length 105 weeks) was 140 mg/kg/day, the TD50 (rat, strain Charles River CD (Sprague-Dawley), females, in feed, site: mammary gland, lesion: fibroadenoma, dosed 52 weeks, study length 52 weeks) was 3.03 mg/kg/day and the TD50 (rat, strain Charles River CD (Sprague-Dawley), females, in feed, site: mammary gland, lesion: malignant tumor, dosed 105 weeks, study length 105 weeks) was 6.33 mg/kg/day. The TD50 (rat, strain Charles River CD (Sprague-Dawley), females, in feed, site: mammary gland, lesion: several types, types named in the paper, dosed 105 weeks, study length 105 weeks) was 22.9 mg/kg/day, the carcinogen call (rat, strain Charles River CD (Sprague-Dawley), males, in feed, site: liver, lesion: hepatocellular adenoma, dosed 104 weeks, study length 104 weeks) was “negative (inactive)” and the carcinogen call (rat, strain Charles River CD (Sprague-Dawley), males, in feed, site: liver, lesion: one or several types, types not named, dosed 52 weeks, study length 52 weeks) was “negative (inactive)”.
`Oc1cc2c(cc1O)[C@@H]1c3ccc(O)c(O)c3OC[C@]1(O)C2` gave a TD50 (rat, strain Wistar, both sexes, in feed, site: abdomen, lesion: malignant lymphoma, dosed 78 weeks, study length 78 weeks) of 2410 mg/kg/day, a TD50 (rat, strain Wistar, both sexes, in feed, site: forehead, lesion: malignant lymphoma, dosed 78 weeks, study length 78 weeks) of 2410 mg/kg/day and a TD50 (rat, strain Wistar, both sexes, in feed, site: several sites, sites named in the paper, lesion: malignant lymphoma, dosed 78 weeks, study length 78 weeks) of 1000 mg/kg/day.
In the case of `CC1CC(C)(C)CC(OOC(C)(C)C)(OOC(C)(C)C)C1` (stereo unspecified), the TD50 (mouse, strain B6C3F1, females, in feed, site: any site (literature study), lesion: malignant tumor, dosed 78 weeks, study length 83 weeks) is reported as 9310 mg/kg/day (inactive), the TD50 (mouse, strain B6C3F1, females, in feed, site: any site (literature study), lesion: one or several types, types not named, dosed 78 weeks, study length 83 weeks) is reported as 4230 mg/kg/day (inactive) and the carcinogen call (mouse, strain B6C3F1, females, in feed, site: liver, lesion: one or several types, types not named, dosed 78 weeks, study length 83 weeks) is reported as “negative (inactive)”. The carcinogen call (mouse, strain B6C3F1, females, in feed, site: lung, lesion: alveolar/bronchiolar adenoma, dosed 78 weeks, study length 83 weeks) was “negative (inactive)”, the TD50 (mouse, strain B6C3F1, females, in feed, site: lung, lesion: alveolar/bronchiolar carcinoma, dosed 78 weeks, study length 83 weeks) was 19900 mg/kg/day (inactive) and the carcinogen call (mouse, strain B6C3F1, males, in feed, site: any site (literature study), lesion: malignant tumor, dosed 78 weeks, study length 83 weeks) was “negative (inactive)”. The TD50 (mouse, strain B6C3F1, males, in feed, site: any site (literature study), lesion: one or several types, types not named, dosed 78 weeks, study length 83 weeks) was 4980 mg/kg/day (inactive), the TD50 (mouse, strain B6C3F1, males, in feed, site: liver, lesion: hepatocellular adenoma, dosed 78 weeks, study length 83 weeks) was 1490 mg/kg/day (inactive) and the carcinogen call (mouse, strain B6C3F1, males, in feed, site: liver, lesion: hepatocellular carcinoma, dosed 78 weeks, study length 83 weeks) was “negative (inactive)”. The TD50 (mouse, strain B6C3F1, males, in feed, site: lung, lesion: alveolar/bronchiolar adenoma, dosed 78 weeks, study length 83 weeks) was 7.6e+09 mg/kg/day (inactive) and the carcinogen call (mouse, strain B6C3F1, males, in feed, site: lung, lesion: alveolar/bronchiolar carcinoma, dosed 78 weeks, study length 83 weeks) was “negative (inactive)”.
For `CCN(CC(F)(F)F)N=O`, the TD50 (rat, strain Sprague-Dawley, males, by gavage, site: esophagus, lesion: papillary carcinoma, dosed 88 weeks, study length 88 weeks) was 2.52 mg/kg/day and the TD50 (rat, strain Sprague-Dawley, males, by gavage, site: nasal cavity, lesion: several types, types named in the paper, dosed 88 weeks, study length 88 weeks) was 7.34 mg/kg/day.
In the case of `CC1CN1P(=O)(N1CC1C)N1CC1C` (stereo unspecified), the TD50 (rat, strain Sherman, males, by gavage, site: all sites, lesion: lymphatic leukemia, dosed 60 weeks, study length 60 weeks) is reported as 4.46 mg/kg/day.
In the case of `C[C@H]1CCCCN1N=O`, the TD50 (rat, strain Sprague-Dawley, both sexes, in drinking water, site: any site (literature study), lesion: malignant tumor, dosed 104 weeks, study length 104 weeks) is reported as 13.2 mg/kg/day, the TD50 (rat, strain Sprague-Dawley, both sexes, in drinking water, site: liver, lesion: liver-cell carcinoma, dosed 104 weeks, study length 104 weeks) is reported as 61.2 mg/kg/day and the TD50 (rat, strain Sprague-Dawley, both sexes, in drinking water, site: liver, lesion: several types, types named in the paper, dosed 104 weeks, study length 104 weeks) is reported as 49.4 mg/kg/day. The TD50 (rat, strain Sprague-Dawley, both sexes, in drinking water, site: several sites, sites named in the paper, lesion: ependymoblastoma, dosed 104 weeks, study length 104 weeks) was 34.5 mg/kg/day.
Work on `CC(=O)Nc1ccc(-c2ccc(F)cc2)cc1` yielded a TD50 (rat, strain Fischer 344, males, in feed, site: kidney, lesion: adenocarcinoma, dosed 52 weeks, study length 52 weeks) of 1.01 mg/kg/day.
With `CC(C)=NNc1nc(-c2ccc([N+](=O)[O-])o2)cs1` the TD50 (rat, strain Holtzman albino (Sprague-Dawley derived), females, in feed, site: forestomach, lesion: squamous-cell papilloma, dosed 36 weeks, study length 54 weeks) was 11 mg/kg/day and the TD50 (rat, strain Holtzman albino (Sprague-Dawley derived), females, in feed, site: forestomach, lesion: squamous-cell papilloma, dosed 44 weeks, study length 60 weeks) was 6.05 mg/kg/day.
`C/C=C(\C)C(=O)O[C@@H]1CCN2CC=C(COC(=O)[C@](O)(C(C)C)[C@H](C)O)[C@H]12` was tested, and the TD50 (rat, strain ACI, males, i.p., site: any site (literature study), lesion: several types, types named in the paper, dosed 56 weeks, study length 92 weeks) was 4.5 mg/kg/day and the TD50 (rat, strain ACI, males, i.p., site: liver, lesion: several types, types named in the paper, dosed 56 weeks, study length 92 weeks) was 1.91 mg/kg/day.

Source: PubChem BioAssay AID1745844 (Carcinogenic Potency Database (CPDB), 2022)
